We go through 3 compounds from US8008328B2, “Methods for the treatment of diabetes-associated dyslipdemia” (Reddy US Therapeutics, Inc., priority 2007, dated 2011).

Assay [1] relates to THP-1. The assay is described as follows: Niacin-induced PGD2 secretion in PMA-differentiated THP-1 macrophages. The class given is cell-based, human. The note with it: FIG. 4.
Assay [2] deals with db/db mice. The assay is described as follows: Plasma insulin and lipids in db/db diabetic mouse model. Format: in vivo. As to the method:
The animals were 40 Female db/db diabetic mice, 4 weeks old on a diet of normal rodent chow. The tests were conducted on five groups, with 7-8 mice per group.
Group 1: Control CMC-tween, oral pipetting, 7 mice. Once a day for 28 days, 60 μl/mouse.
Group 2: Niacin 2.5 g/kg (roughly), in drinking water for 28 days, 7 mice (10 mg/mL in water).
Once a day for 28 days, 30 ul/mouse. (2 mg/mL in water)
Group 5: Pioglitazone 30 mg/kg/day, oral pipetting, 7 mice. Once a day for 28 days, 60 μL/mouse. (15 mg/mL in Vehicle)
Body weight was measured in all groups once a week. Food consumption was monitored once a week. All animals were fasted for 4 hours and plasma glucose levels were measured by OneTouch™ Ultra blood glucose meter. 35 animals were divided to 5 groups with 7 mice per group base on plasma glucose level. (Plasma glucose >120 mg/dL as a cut off for animal selection). 200 μL blood samples were collected from retro-orbital vein for plasma insulin level and lipids profile at baseline.
Treatment started for all groups and lasted for 28 days. 4 hours fast blood samples were collected for plasma insulin level and lipids profile at 2 weeks and 4 weeks post dose. The Oral Glucose Tolerance Test (“OGTT”) was conducted at day 16 and day 30 post dose.

Assay [3] has as its system insulin receptor substrate (IRS-1). The assay is described as follows: IRS-1 Ser307 phosphorylation in differentiated 3T3L1 adipocytes (Western blot). The class given is cell-based, Murine. To be noted: FIG. 1; for IRS-1 phosphorylation: agent alone compared to untreated, 3T3L1 adipocytes.
Where [4] appears, read: db/db diabetic dyslipidemia model, FIG. 3.

On to `Cc1cnc(NC(=O)C2=C(O)c3ccccc3S(=O)(=O)N2C)s1` [meloxicam], for which, in assay [1] (compound 30 minutes prior to niacin), the “effect on niacin-induced increase in PGD2 levels” value is listed as “inhibited”. Also, in assay [2] (db/db mice, 2 mg/kg/day for two weeks), the insulin levels result is given as “reduced”. Further, the plasma insulin result in assay [2] (db/db mice, treatment up to 28 days, FIG. 2) is recorded as “significantly reduced”. In assay [2] (meloxicam added to niacin, db/db mice, FIG. 3), the “effect on niacin's ability to increase HDL or decrease triglycerides” value was “did not affect”. For the same compound, in assay [3] (cells incubated with compound 2 hours prior to TNFα (20 ng/mL, 30 minutes)), the “effect on TNFα-induced IRS1 phosphorylation” value is listed as “inhibited”.

As to TNFα, the IRS-1 phosphorylation result in assay [3] is “increased”.

As for `O=C(O)c1cccnc1` [niacin, pyridine-3-carboxylic acid], the “PGD2 levels in culture medium” value in assay [1] (compared to controls) is reported as “increased”. Also, in assay [2] (setting [4]), the HDL entry is “increase” and the triglycerides result was “decrease”. Besides, the IRS-1 phosphorylation entry in assay [3] was “significantly increased”.
